Laboratory results published in article PMC12498411, “Antidepressant-like Properties of a Selenium-Containing Pyridinium Salt Explored through In Vitro, In Vivo, and In Silico Approaches” (ACS Chemical Neuroscience, 2025).

Assays:
[1] = tested on: female Swiss mice; test: Acute oral toxicity, OECD Protocol 423 Acute Toxic Class Method; type: in vivo, mouse; settings: for Food intake vs control: 50 mg/kg or 300 mg/kg; for Food intake vs control / Physical signs / Animal mortality: 14 days; for Plasma ALT activity / Plasma urea levels / Physical signs / Animal mortality: 50 and 300 mg/kg; for Physical signs / Animal mortality: gavage, female mice; for Animal mortality: single dose
Experimental: The evaluation of the acute toxicity of compounds 3A and 3B via oral administration was conducted in female Swiss mice, following the guidelines outlines in Protocol 423–OECD. The acute oral toxicity study of compound 3C was previously conducted by our research group, showing low toxicity and therefore was not evaluated here.
The animals were divided into 3 experimental groups (n = 6 mice/group) for each dosage testing: (I) Control, (II) Compound 3A, and (III) Compound 3B. Both compounds (3A and 3B) were administered at a single dose of 50 or 300 mg/kg via gavage, while control animals received water (vehicle). This high dose (300 mg/kg) was fractionated into three oral administrations of 100 mg/kg at a volume of 10 mL/kg with an interval of 30 min each. Over a period of 14 days, water and food consumption were monitored. In addition, changes in body weight and behavioral parameters such as lethargy, piloerection, and diarrhea were observed. Following this evaluation period, locomotion and exploration of the animals were assessed using the OFT. Subsequently, the animals were euthanized by an overdose of isoflurane, and blood, brain, liver, and kidney samples were collected for ex vivo analysis.
Blood plasma was used to assess liver and kidney function markers by quantifying the activity of AST and ALT, as well as urea levels, using commercially available kits (LABTEST; BIOCLIN). The brain, liver and kidneys were employed to investigate potential oxidative damage to lipids as a toxicity parameter utilizing the TBARS technique.
(§1) The aim of this behavioral test is to assess the locomotion and exploration behavior of the animals using an open field apparatus measuring 30 cm × 30 cm × 15 cm, constructed from plywood with a floor divided into nine quadrants, facilitating free movement for the animals. During the OFT, the animals were positioned in the center of the apparatus and subjected to a 5 min testing period, following the protocol outlined in literature. The number of quadrant crossings and rearings was recorded and quantified during testing phase.

[2] = tested on: male Swiss mice; test: Tail suspension test (TST); type: in vivo, mouse
Experimental: A behavioral screening was conducted using the three salts to determine their potential antidepressant-like actions (n = 7–9 mice/group).
(§2) A dosage of 5 mg/kg (intragastric route, i.g., by gavage) was administered to all groups receiving the salts. […] The TST was conducted 30 min following drug administration, with the OFT being performed 4 min prior to the TST.
(§3) Following the selection of the most promising salt during screening (Compound 3B), an analysis of the compound’s time-response curve was conducted in the mouse TST. For this purpose, the animals were divided into five groups: (I) control (water; i.g.), (II) the group receiving compound 3B 15 min prior to TST, (III) the group receiving compound 3B 30 min before TST, (IV) the group receiving compound 3B 60 min before TST, and (V) the group receiving compound 3B 120 min before TST. The dosage of salt was standardized at 5 mg/kg (i.g). OFT was conducted 4 min prior to the TST.
(§4) After choosing a suitable preadministration time, the dose–response curve of the compound at this fixed time was analyzed. The animals were categorized into […]: I) a control group (administered water; i.g.) and groups II, III, IV and V) receiving compound 3B at doses of 0.5 mg/kg, 1 mg/kg, 2.5 mg/kg, and 5 mg/kg (i.g.), respectively. […] Thirty minutes postadministration, the animals underwent the TST. Four minutes prior to the TST, they underwent the OFT.
This test aims to assess depressive-like behavior and antidepressant-like action of therapies by measuring immobility. […] The test was conducted using a mouse suspension box made of wood, measuring 50 cm × 21 cm × 21 cm, designed to prevent any visual or physical interaction among the animals. A suspension bar was positioned atop the box, and the mouse’s tail was affixed to the bar using adhesive tape. The test duration was 6 min, during which the animal’s latency to the first immobility episode and the total duration of immobility (sec) were assessed.

[3] = tested on: cerebral lipid peroxidation; test: TBARS assay, SNP-induced lipid peroxidation in brain homogenate; type: biochemical, mouse; settings: mouse brain homogenate, SNP-induced
Experimental: Brains from mice of both sexes were used for in vitro assays, each performed in duplicate across three independent experiments (n = 3), conducted on different days.
The brain tissues were homogenized in a 50 mM Tris-HCl buffer at pH 7.4, using a 1:10 ratio (w/v). The freshly prepared homogenate was then centrifuged at 900g for 10 min, yielding a low-speed supernatant (S1). Lipid peroxidation was evaluated using the TBARS method as previously described. Lipid peroxidation was induced by 0.3 mM SNP. A 100 μL aliquot of S1 was incubated for 1 h at 37 °C in the presence of the compounds 3A, 3B, and 3C at concentrations ranging from 25 to 500 μM, and SNP or water (to control). The color reaction was initiated by adding 500 μL of a 0.8% thiobarbituric acid (TBA) solution, followed by 200 μL of 8.1% sodium dodecyl sulfate (SDS) and 500 μL of acetic acid (pH 3.4). The reaction mixture was incubated at 95 °C for 1 h. The absorbance was measured using a spectrophotometer at a wavelength of 532 nm. Trolox (100 μM), an antioxidant analogous to vitamin E, served as a positive control. The results were reported as nmol TBARS per gram of tissue. A parallel TBARS experiment was also conducted using a standard alkyl aryl selenide (2-((phenylselanyl)-methyl)-pyridine), dissolved in DMSO at the same concentrations tested, ranging from 25 to 500 μM.

[4] = tested on: male Swiss mice; test: Open field test (OFT) before the TST; type: in vivo, mouse
Experimental: as §2, §3, §4, §1

[5] = salts 5 mg/kg i.g., fluoxetine 20 mg/kg i.p., 30 min before test

## Cc1ccc(C(=O)C[n+]2ccccc2C[Se]c2ccccc2)cc1 [Compound 3B, 1-(2-oxo-2-(p-tolyl)ethyl)-2-((phenylselanyl)methyl)pyridin-1-ium bromide]
[1]; 50 mg/kg
  Body weight at the last measurement (last day) vs control: did not differ significantly
  Ex vivo lipid peroxidation (TBARS) in liver: an increase in damage was observed
  Plasma AST activity: did not affect AST activity
[1]
  Food intake vs control: ate similar to the control group
  Plasma ALT activity: remained unchanged
  Plasma urea levels: remained similar
  Physical signs: did not indicate any observable changes
  Animal mortality: no instances of animal mortality
[1]; 300 mg/kg
  Ex vivo lipid peroxidation (TBARS) in liver: not evident at the higher dose
  Plasma AST activity: an increase was observed
  Water consumption vs control: no significant difference
[2]; TST, i.g., 30 min
  Minimum effective dose for antidepressant-like action: 1 mg/kg
[2]; [5]
  TST latency time to first immobility episode, screening: significantly increased latency time
  TST total immobility time, screening: shorter total immobility times
[2]; screening, 5 mg/kg i.g., 30 min
  Cohen-D effect size in TST: > 1.77
[3]
  IC50: 130 µM
[4]; 5 mg/kg i.g., 15–120 min
  OFT locomotor and exploratory activities, time-response experiment: did not affect the locomotor and exploratory activities
[4]; 0.5–5 mg/kg i.g.
  OFT number of crossings, dose–response experiment: no changes were observed
[4]; 3B 0.5–5 mg/kg i.g., fluoxetine 20 mg/kg i.p.
  OFT number of rearings, dose–response experiment: did not impact on the exploratory behavior profile

## O=C(C[n+]1ccccc1C[Se]c1ccccc1)c1ccccc1.[Br-] [Compound 3A, 1-(2-oxo-2-phenylethyl)-2-((phenylselanyl)methyl)pyridin-1-ium bromide]
[1]; 50 mg/kg
  Body weight at the last measurement (last day) vs control: reduction in body weight
  Plasma AST activity: did not affect AST activity
  Water consumption vs control: decreased
[1]
  Food intake vs control: ate similar to the control group
  Plasma ALT activity: remained unchanged
  Plasma urea levels: remained similar
  Physical signs: did not indicate any observable changes
  Animal mortality: no instances of animal mortality
[1]; 300 mg/kg
  Water consumption vs control: no significant difference
[3]
  IC50: 150 µM
